Assay results taken from patent US9302999B2, “Substituted triazoles as herbicides” (E. I. DU PONT DE NEMOURS AND COMPANY, priority 2012, dated 2016).

What was measured:
Assay type in all cases: in vivo
[1] = system: johnsongrass (Sorghum halepense); assay: Test C pre-/postemergence: johnsongrass
How it was run: (§1)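 Visual injury scored 0–100 (100 = complete control) against untreated controls after 13–15 greenhouse days. Surfactant-containing solvent formulations applied either to soil after sowing (loam/sand) or over 1- to 4-leaf plants, 2–18 cm tall.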

[2] = system: ryegrass, Italian (Italian ryegrass, Lolium multiflorum); assay: Test C pre-/postemergence: ryegrass, Italian
How it was run: as §1

[3] = system: large crabgrass (Digitaria sanguinalis); assay: Test C pre-/postemergence: large crabgrass
How it was run: as §1

[4] = system: nutsedge, yellow (yellow nutsedge, Cyperus esculentus); assay: Test C pre-/postemergence: nutsedge, yellow
How it was run: as §1

[5] = system: kochia (Kochia scoparia); assay: Test C pre-/postemergence: kochia; settings: Postemergence
How it was run: as §1

[6] = system: barnyardgrass (Echinochloa crus-galli); assay: Test A pre-/postemergence: barnyardgrass; settings: for Barnyardgrass plant response rating: visual rating on 0 to 100 scale (0 no effect, 100 complete control), approximately ten days
How it was run: (§2)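 Plants in loam–sand blend were treated with test chemicals in non-phytotoxic solvent with surfactant, either as preemergence directed soil spray or postemergence at 2–10 cm, one- to two-leaf stage. After about ten days in greenhouse, injury was rated visually against untreated controls on a 0–100 scale (100 = complete control).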

[7] = system: galium (catchweed bedstraw, Galium aparine); assay: Test C pre-/postemergence: galium
How it was run: as §1

[8] = system: winter wheat (Triticum aestivum); assay: Test C pre-/postemergence: winter wheat
How it was run: as §1

[9] = system: corn (Zea mays); assay: Test A pre-/postemergence: corn; settings: for Corn plant response rating: visual rating on 0 to 100 scale (0 no effect, 100 complete control), approximately ten days
How it was run: as §2

[10] = system: pigweed (Amaranthus retroflexus); assay: Test C pre-/postemergence: pigweed
How it was run: as §1

[11] = system: morningglory (Ipomoea spp.); assay: Test A pre-/postemergence: morningglory; settings: for Morningglory plant response rating: visual rating on 0 to 100 scale (0 no effect, 100 complete control), approximately ten days
How it was run: as §2

[12] = Postemergence, 31 g ai/ha, scale 0 to 100 (0 no effect, 100 complete control)
[13] = Postemergence, 62 g ai/ha, scale 0 to 100 (0 no effect, 100 complete control)
[14] = Postemergence, 125 g ai/ha, scale 0 to 100, 0 no effect, 100 complete control
[15] = Postemergence, 250 g ai/ha, scale 0 to 100
[16] = Preemergence, 31 g ai/ha, scale of 0 to 100, 0 is no effect, 100 is complete control
[17] = Preemergence, 62 g ai/ha, scale of 0 to 100, 0 is no effect, 100 is complete control
[18] = Preemergence, 125 g ai/ha, scale 0 to 100, 0 no effect, 100 complete control
[19] = Preemergence, 250 g ai/ha, scale 0 to 100, 0 no effect, 100 complete control
[20] = 31 g ai/ha, scale 0 to 100 (0 no effect, 100 complete control)
[21] = 62 g ai/ha, scale 0 to 100 (0 no effect, 100 complete control)
[22] = 125 g ai/ha, scale 0 to 100, 0 no effect, 100 complete control
[23] = Postemergence, 125 g ai/ha, 0 to 100 scale, 0 is no effect, 100 is complete control
[24] = Preemergence, 125 g ai/ha, 0 to 100 scale where 0 is no effect and 100 is complete control
[25] = Preemergence, 500 g ai/ha, 0 to 100 scale (0 no effect, 100 complete control)

CCc1nn(-c2ccc(C(F)(F)F)cc2)nc1Cc1ccnc(C(F)(F)F)c1 [Compound 155]
Plant response rating, Johnsongrass [1, 12]: 20
Plant response rating, Johnsongrass [1, 13]: 80
Plant response rating, Johnsongrass [1, 14]: 98
Plant response rating, Johnsongrass [1, 15]: 98
Plant response rating, Johnsongrass [1, 16]: 80
Plant response rating, Johnsongrass [1, 17]: 90
Plant response rating, Johnsongrass [1, 18]: 90
Plant response rating, Johnsongrass [1, 19]: 95
Plant response rating, Ryegrass, Italian [2, 12]: 35
Plant response rating, Ryegrass, Italian [2, 13]: 45
Plant response rating, Ryegrass, Italian [2, 14]: 65
Plant response rating, Ryegrass, Italian [2, 15]: 70
Plant response rating, Ryegrass, Italian [2, 16]: 35
Plant response rating, Ryegrass, Italian [2, 17]: 85
Plant response rating, Ryegrass, Italian [2, 18]: 85
Plant response rating, Ryegrass, Italian [2, 19]: 90
Plant response rating, Crabgrass, Large [3, 12]: 20
Plant response rating, Crabgrass, Large [3, 13]: 45
Plant response rating, Crabgrass, Large [3, 14]: 75
Plant response rating, Crabgrass, Large [3, 15]: 85
Plant response rating, Crabgrass, Large [3, 16]: 100
Plant response rating, Crabgrass, Large [3, 17]: 100
Plant response rating, Crabgrass, Large [3, 18]: 100
Plant response rating, Crabgrass, Large [3, 19]: 100
Plant response rating, Nutsedge, Yellow [4, 12]: 5
Plant response rating, Nutsedge, Yellow [4, 13]: 10
Plant response rating, Nutsedge, Yellow [4, 14]: 10
Plant response rating, Nutsedge, Yellow [4, 15]: 20
Plant response rating, Nutsedge, Yellow [4, 16]: 0
Plant response rating, Kochia [5, 20]: 90
Plant response rating, Kochia [5, 21]: 90
Plant response rating, Kochia [5, 22]: 95
Plant response rating, Kochia ([5]; 250 g ai/ha, scale 0 to 100): 95
Plant response rating, Barnyardgrass [6, 23]: 90
Barnyardgrass plant response rating ([6]; Postemergence, 500 g ai/ha): 90
Plant response rating, Barnyardgrass [6, 24]: 100
Plant response rating, Barnyardgrass [6, 25]: 100
Plant response rating, Galium [7, 12]: 70
Plant response rating, Galium [7, 13]: 75
Plant response rating, Galium [7, 14]: 80
Plant response rating, Galium [7, 15]: 95
Plant response rating, Galium [7, 16]: 98
Plant response rating, Galium [7, 17]: 100
Plant response rating, Galium [7, 18]: 100
Plant response rating, Galium [7, 19]: 100
Plant response rating, Wheat [8, 12]: 15
Plant response rating, Wheat [8, 13]: 30
Plant response rating, Wheat [8, 14]: 35
Plant response rating, Wheat [8, 15]: 40
Plant response rating, Wheat [8, 17]: 5
Plant response rating, Wheat [8, 18]: 10
Plant response rating, Wheat [8, 19]: 35
Plant response rating, Corn [9, 23]: 40
Corn plant response rating ([9]; Postemergence, 500 g ai/ha): 70
Plant response rating, Corn [9, 24]: 60
Plant response rating, Corn [9, 25]: 80
Plant response rating, Pigweed [10, 12]: 90
Plant response rating, Pigweed [10, 13]: 90
Plant response rating, Pigweed [10, 14]: 98
Plant response rating, Pigweed [10, 15]: 100
Plant response rating, Pigweed [10, 16]: 100
Plant response rating, Pigweed [10, 17]: 100
Plant response rating, Pigweed [10, 18]: 100
Plant response rating, Pigweed [10, 19]: 100
Plant response rating, Morningglory [11, 23]: 90
Morningglory plant response rating ([11]; Postemergence, 500 g ai/ha): 100
Plant response rating, Morningglory [11, 24]: 80
Plant response rating, Morningglory [11, 25]: 90

Cc1nn(-c2ccc(F)c(C(F)(F)F)c2)nc1Cc1ccnc(C(F)(F)F)c1 [Compound 156]
Plant response rating, Johnsongrass [1, 12]: 45
Plant response rating, Johnsongrass [1, 13]: 50
Plant response rating, Johnsongrass [1, 14]: 65
Plant response rating, Johnsongrass [1, 15]: 85
Plant response rating, Johnsongrass [1, 16]: 75
Plant response rating, Johnsongrass [1, 17]: 90
Plant response rating, Johnsongrass [1, 18]: 90
Plant response rating, Johnsongrass [1, 19]: 95
Plant response rating, Ryegrass, Italian [2, 12]: 15
Plant response rating, Ryegrass, Italian [2, 13]: 35
Plant response rating, Ryegrass, Italian [2, 14]: 35
Plant response rating, Ryegrass, Italian [2, 15]: 70
Plant response rating, Ryegrass, Italian [2, 16]: 45
Plant response rating, Ryegrass, Italian [2, 17]: 80
Plant response rating, Ryegrass, Italian [2, 18]: 90
Plant response rating, Ryegrass, Italian [2, 19]: 90
Plant response rating, Crabgrass, Large [3, 12]: 10
Plant response rating, Crabgrass, Large [3, 13]: 30
Plant response rating, Crabgrass, Large [3, 14]: 40
Plant response rating, Crabgrass, Large [3, 15]: 70
Plant response rating, Crabgrass, Large [3, 16]: 90
Plant response rating, Crabgrass, Large [3, 17]: 90
Plant response rating, Crabgrass, Large [3, 18]: 98
Plant response rating, Crabgrass, Large [3, 19]: 100
Plant response rating, Nutsedge, Yellow [4, 12]: 5
Plant response rating, Nutsedge, Yellow [4, 13]: 10
Plant response rating, Nutsedge, Yellow [4, 14]: 10
Plant response rating, Nutsedge, Yellow [4, 15]: 10
Plant response rating, Nutsedge, Yellow [4, 16]: 0
Plant response rating, Nutsedge, Yellow [4, 17]: 0
Plant response rating, Nutsedge, Yellow [4, 18]: 0
Plant response rating, Nutsedge, Yellow [4, 19]: 0
Plant response rating, Kochia [5, 20]: 90
Plant response rating, Kochia [5, 21]: 90
Plant response rating, Kochia [5, 22]: 90
Plant response rating, Kochia ([5]; 250 g ai/ha, scale 0 to 100): 95
Plant response rating, Barnyardgrass [6, 23]: 90
Barnyardgrass plant response rating ([6]; Postemergence, 500 g ai/ha): 90
Plant response rating, Barnyardgrass [6, 24]: 100
Plant response rating, Barnyardgrass [6, 25]: 100
Plant response rating, Galium [7, 12]: 80
Plant response rating, Galium [7, 13]: 90
Plant response rating, Galium [7, 14]: 90
Plant response rating, Galium [7, 15]: 95
Plant response rating, Galium [7, 16]: 85
Plant response rating, Galium [7, 17]: 100
Plant response rating, Galium [7, 18]: 100
Plant response rating, Galium [7, 19]: 100
Plant response rating, Wheat [8, 12]: 5
Plant response rating, Wheat [8, 13]: 15
Plant response rating, Wheat [8, 14]: 25
Plant response rating, Wheat [8, 15]: 30
Plant response rating, Wheat [8, 17]: 5
Plant response rating, Wheat [8, 18]: 20
Plant response rating, Wheat [8, 19]: 35
Plant response rating, Corn [9, 23]: 40
Corn plant response rating ([9]; Postemergence, 500 g ai/ha): 70
Plant response rating, Corn [9, 24]: 40
Plant response rating, Corn [9, 25]: 70
Plant response rating, Pigweed [10, 12]: 75
Plant response rating, Pigweed [10, 13]: 90
Plant response rating, Pigweed [10, 14]: 95
Plant response rating, Pigweed [10, 15]: 100
Plant response rating, Pigweed [10, 16]: 100
Plant response rating, Pigweed [10, 17]: 100
Plant response rating, Pigweed [10, 18]: 100
Plant response rating, Pigweed [10, 19]: 100
Plant response rating, Morningglory [11, 23]: 90
Morningglory plant response rating ([11]; Postemergence, 500 g ai/ha): 90
Plant response rating, Morningglory [11, 24]: 80
Plant response rating, Morningglory [11, 25]: 90
